Measurements as given in patent US7528175B2, “Method of treating airway diseases with beta-adrenergic inverse agonists” (Inverseon, Inc., priority 2005, dated 2009).
“Also recorded” adds a separate entry of the source. Read-outs that look alike come from different tables or passages of the source.

Key:
[1] = test system: asthmatic mice; assay: Airway resistance (Raw) response to methacholine in murine model of asthma (forced oscillation); assay type: in vivo, Balb/cJ mice; settings: for airway hyperresponsiveness (Raw): chronic treatment 7 days, 20 mg/kg (metoprolol 3× daily s.c.; timolol in chow)
Protocol: Balb/cJ mice aged 6 weeks (Jackson Animal Laboratory, Bar Harbor, Me.) were housed under specific pathogen-free conditions and fed a chicken ovalbumin-free diet. The Animal Research Ethics Boards of both the University of Houston and the Baylor College of Medicine approved all experiments reported here. […] Mice were sensitized with subcutaneous injection of 25 μg of ovalbumin adsorbed to aluminum hydroxide on protocol days 2, 9, and 16. Subsequently, mice were given 50 μL of saline solution containing 25 μg of ovalbumin intranasally, on a daily basis, from protocol days 23 through 27. A group of ovalbumin-sensitized saline-challenged mice serves as controls for systemic sensitization and respiratory challenges with ovalbumin. Prior to intranasal administrations, mice were sedated with halothane vapor.
To examine the effects of duration of β-adrenergic ligand therapy on the phenotype of the murine model of asthma, the experimental drugs were administered either acutely or chronically to different groups of asthmatic mice.
Asthmatic mice on acute therapy were given a single intravenous bolus infusion of either β-adrenergic drug or normal saline on protocol day 28, 15 minutes before airway responsiveness to methacholine was determined. […] […] […] These concentrations were chosen based on those producing therapeutic effects in mice in previously published studies. The non-asthmatic mice were fed normal chow.
On protocol day 28, mice were anesthetized, tracheotomized, and connected to a computer-controlled small animal ventilator (Flexivent, Scientific Respiratory Equipment, Inc., Montreal, Canada). Airway resistance (Raw) was measured using the forced oscillation technique. The cellular composition of bronchoalveolar lavage fluid (BALF) was also determined.
To induce airway constriction, a solution containing 150 μg/mL of acetyl-α-methylcholine chloride (methacholine) (Sigma Chemical, St. Louis, Mo.) was infused intravenously at constant rates using a syringe infusion pump (Raze Scientific Instruments, Stanford, Conn.). […] Each methacholine dose was administered for 3 to 5 minutes, during which data were sampled at 1-minute intervals and then averaged.
The complex input impedance of the respiratory system was computed and the value of the real part of respiratory system impedance at 19.75 Hz was taken to reflect the magnitude of airway resistance (Raw). To examine the degree of airway responsiveness of each animal, the values for Raw as a function of methacholine doses were plotted. The largest value for Raw achieved in response to methacholine stimulation was referred to as Rawpeak. For mice that achieved a plateau in the methacholine dose-Raw response curve, the ED50 was calculated by linear interpolation using the GraphPad Prism4 (GraphPad Software, Inc.). […] The Bonferroni test was used to examine the statistical differences between experimental groups. The effects of acute drug treatments on baseline respiratory system mechanics were assessed using a two-tailed paired t-test. A value of P<0.05 was considered significant.
For these experiments, salbutamol was used for chronic administration at 0.5 mg/kg/day with a minipump and for acute administration at 0.15 mg/kg by i.v. bolus 15 minutes prior to challenge. Alprenolol was used at a high dose of 7200 ppm in chow or at a low dose of 720 ppm in chow. Carvedilol was used at a high dose of 2400 ppm in chow or at a low dose of 720 ppm in chow.

[2] = molecular target: β2-adrenergic receptor (Mus musculus, UniProt P18762); assay type: binding, mice; settings: for Bmax: 15 Minutes drug treatment; for Bmax / βmax: lung membranes of asthmatic mice, mean±SEM; for βmax: 28 Days drug treatment; for level of the β2-adrenergic receptor: chronic treatment, asthmatic mice
Protocol: (§1) β2-adrenergic receptor numbers were measured in asthmatic mice as follows. […] Mice were sacrificed and lung membranes were isolated as follows. Frozen lung tissue was homogenized in an ice-cold buffer containing 0.32 M sucrose and 25 mM Tris (pH 7.4) using a polytron (Pro 200, Pro Scientific, Inc.). The homogenate was centrifuged at 1000×g for 10 min at 4° C. The resulting supernatant was centrifuged at 40,000×g for 20 min at 4° C. The pellet was suspended in an ice-cold 25 mM Tris-HCl buffer (pH 7.4) and centrifuged at 40,000×g for 20 min at 4° C. The final pellet was suspended in 200 μL of 25 mM Tris-HCl (pH 7.4); membrane protein concentration was determined by BCA protein assay kit. […] The incubation was done at 37° C. for 2 h and terminated by rapid vacuum filtration through glass fiber filters. The filters were washed three times with 250 μL of cold wash buffer (25 mM Tris-HCl, pH 7.4) and the radioactivity determined in a counter. […] Receptor densities are expressed as femtomoles of sites per milligram of protein. Bmax is determined by nonlinear regression of the saturation binding curves.

[3] = test system: β2-adrenergic receptor; assay type: binding, mice; settings: 2 days of administration
Protocol: as §1

[4] = test system: asthmatic mice; assay: BALF cell number and type (Example 11); assay type: in vivo; settings: vs nontreated asthmatic mice
Excerpt: The same mice as described in Example 1 underwent bronchoalveolar lavage (BAL) to determine the total number and type of immune system cells in the lung. BAL Fluid (BALF) was irrigated and collected from the lungs of mice as previously described (Evans K L, Bond R A, Corry […]. Frequency dependence of respiratory system mechanics during induced constriction in a murine model of asthma. J Appl Physiol. 2003 January;94(1):245-52). […] The number of neutrophils was increased in nontreated asthmatic mice compared to mice that served as controls for chronic beta-blocker treatments. In comparison to their notable effects on airway responsiveness, the β-AR ligands tested had very little effect on BALF cellularity. […] FIG. 12 has 3 panels of cell number and type of cells from the bronchoalveolar lavage fluid of asthmatic mice treated acutely or chronically with beta adrenergic ligands. Cells were identified as eosinophils (black bars), macrophages (hatched bars), neutrophils (grey bars), and lymphocytes (white bars) by standard morphologic criteria. At least 200 cells were counted per cytospin preparation, and the absolute number of each cell type was calculated based on the volume of fluid recovered from the lavage. […] Data are expressed as mean ±SEM and are representative of 6-25 animals per group. #P<0.05 compared to NTX, *P<0.05 compared to control (ANOVA).

[5] = test system: asthmatic mice; assay: Total number of immune cells in BALF (Example 12); assay type: in vivo; settings: chronic treatment; compared to NS/NC mice
Protocol: Bronchial alveolar lavage fluid was collected from treated animals and total immune cell number was determined and the total number of eosinophils was also determined. Additionally, the interleukin 10 (IL-10) levels were determined in the mice.

[6] = cited from earlier work
[7] = test system: patients with CHF; settings: cited from earlier work
[8] = chronic use; cited from earlier work
[9] = test system: antigen-induced bronchoconstriction; settings: acute administration; cited from earlier work
[10] = test system: tracheas from asthmatic mice; settings: chronic treatment of asthmatic mice, excised tracheas; cited from earlier work
[11] = test system: β-adrenergic receptor; settings: U.S. Pat. No. 6,284,800; cited from earlier work
[12] = asthmatic mice, acute: single intravenous bolus 15 minutes before methacholine
[13] = asthmatic mice, chronic administration for 28 days

Sequence of β2-adrenergic receptor (Mus musculus, UniProt P18762) (P18762 whole entry): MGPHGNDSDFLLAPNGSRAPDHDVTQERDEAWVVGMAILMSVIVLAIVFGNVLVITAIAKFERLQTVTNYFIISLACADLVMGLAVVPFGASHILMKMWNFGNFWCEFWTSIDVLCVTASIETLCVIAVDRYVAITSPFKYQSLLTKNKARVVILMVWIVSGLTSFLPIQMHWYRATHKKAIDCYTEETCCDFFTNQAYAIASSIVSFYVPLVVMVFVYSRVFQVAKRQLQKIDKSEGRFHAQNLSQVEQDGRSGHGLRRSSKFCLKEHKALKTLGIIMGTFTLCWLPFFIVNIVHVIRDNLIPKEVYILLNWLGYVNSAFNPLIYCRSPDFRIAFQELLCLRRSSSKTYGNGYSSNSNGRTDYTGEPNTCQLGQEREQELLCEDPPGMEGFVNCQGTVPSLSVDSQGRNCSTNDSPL

SMILES: CC(C)(C)NCC(O)c1ccc(O)c(CO)c1 (stereo not shown) [salbutamol]
- Decreased Raw ([1]; 15 minutes of administration): yes
- Decreased Raw ([1]; 2 days of administration): no
- Decreased Raw ([1]; 28 days of administration): no
- airway responsiveness to methacholine provocation (Raw) [1, 12]: reduced the level of airway responsiveness to methacholine provocation and the level of airway resistance
- airway responsiveness to methacholine provocation (Raw) [1, 13]: no protection was observed
- Bmax [2]: 256.5 ± 29.24 femtomoles of sites per milligram of protein
- βmax [2]: 97.0 ± 23.02 femtomoles of sites per milligram of protein
- Increased β2AR density ([2]; 15 minutes of administration): yes
- Increased β2AR density ([2]; 28 days of administration): no
- level of the β2-adrenergic receptor [2]: slight decrease
- Increased β2AR density [3]: no
- BALF cellularity ([4]; acute treatment (15 minutes)): did not alter the cellular composition of BALF
- BALF cellularity ([4]; chronic treatment (28 days)): significant increase in the number of eosinophils
- total number of immune cells in BALF [5]: statistically significant at P<0.05 total higher numbers of immune cells
- bioavailability of inhaled drug ([6]; 10 patients with cystic fibrosis vs healthy adults): greater than that in healthy adults

SMILES: CC(C)(Cc1c[nH]c2ccccc12)NCC(O)COc1ccccc1C#N (stereo not shown) [Bucindolol, bucindolol]
- clinical outcome in congestive heart failure [7]: failed to demonstrate any benefit over placebo

SMILES: OCc1cc(C(O)CNCCCCCCOCCCCc2ccccc2)ccc1O (stereo not shown) [salmeterol]
- trial outcome [8]: stopped due to increased death rates
- time for majority of a dose to be eliminated in the feces ([6]; in vivo): ≤ 72 h

SMILES: CC(C)NC[C@H](O)COc1cccc2ccccc12 [L-form of propranolol, propranolol]
- specific lung resistance [9]: increased specific lung resistance

SMILES: CC(C)(C)NC[C@H](O)COc1nsnc1N1CCOCC1 [timolol]
- airway hyperresponsiveness (Raw) [1]: effective in reducing airway hyperresponsiveness

SMILES: C=CCc1ccccc1OCC(O)CNC(C)C (stereo not shown) [alprenolol]
- Decreased Raw ([1]; 15 minutes of administration): yes
- Decreased Raw ([1]; 2 days of administration): no
- Decreased Raw ([1]; 28 days of administration): no
- airway responsiveness to methacholine provocation (Raw) [1, 12]: airway responsiveness was diminished
- airway responsiveness to methacholine provocation (Raw) [1, 13]: does not reduce airway hyperresponsiveness; also recorded: without any activity; also recorded: provides no benefit upon chronic administration
- methacholine doses at which Raw was significantly decreased vs non-treated (P<0.05) ([1]; asthmatic mice, single intravenous bolus): ≥ 408 µg/kg/min
- Bmax [2]: 299.5 ± 12.19 femtomoles of sites per milligram of protein
- βmax [2]: 179.2 ± 53.05 femtomoles of sites per milligram of protein
- Increased β2AR density ([2]; 15 minutes of administration): yes
- Increased β2AR density ([2]; 28 days of administration): no
- level of the β2-adrenergic receptor [2]: slight decrease
- Increased β2AR density [3]: no
- BALF cellularity ([4]; acute treatment (15 minutes)): significant increase in the number of macrophages
- BALF cellularity ([4]; chronic treatment (28 days)): no changes in BALF cellularity were observed
- effectiveness on tracheal contraction in response to methacholine (rank) [10]: The most effective compound

SMILES: C[C@@H]1C[C@H]2[C@@H]3C[C@H](F)C4=CC(=O)C=C[C@]4(C)[C@@]3(F)[C@@H](O)C[C@]2(C)[C@@]1(O)C(=O)SCF [fluticasone]
- first-pass hepatic metabolism of systemically absorbed drug ([6]; in vivo): almost complete

SMILES: COCCc1ccc(OCC(O)CNC(C)C)cc1 (stereo not shown) [metoprolol]
- airway hyperresponsiveness (Raw) [1]: effective in reducing airway hyperresponsiveness
- clinical outcome in congestive heart failure [7]: significant mortality reduction

SMILES: CC(C)NC[C@@H](O)COc1cccc2ccccc12 [D-propranolol]
- antigen-induced bronchoconstriction and airway hyperresponsiveness [9]: beneficial in inhibiting antigen-induced bronchoconstriction and reducing airway hyperresponsiveness
- activity with respect to β-adrenergic receptors [11]: inactive

SMILES: CCCC1O[C@@H]2C[C@H]3[C@@H]4CCC5=CC(=O)C=C[C@]5(C)[C@H]4[C@@H](O)C[C@]3(C)[C@]2(C(=O)CO)O1 (stereo partly shown) [budesonide]
- plasma clearance relative to average clearance of prednisolone ([6]; in vivo): about 10 fold
- systemic availability of the swallowed fraction ([6]; in vivo): 10.7±4.3%
- plasma clearance of the 2 enantiomers, children with asthma vs healthy adults ([6]; per kilogram of bodyweight, 6 children, 11 adults): about 50%

SMILES: CC(C)(C)NCC(O)c1cc(O)cc(O)c1 (stereo not shown) [terbutaline]
- increase in bioavailability from oral component ([6]; from an MDI): 6.7%
- absorption through the lung ([6]; healthy smokers vs healthy nonsmokers): absorbed through the lung more rapidly in healthy smokers than in healthy nonsmokers

SMILES: Cc1ccc(OCC(O)C(C)NC(C)C)c2c1CCC2 (stereo not shown) [ICI-118,551]
- effectiveness on tracheal contraction in response to methacholine (rank) [10]: then ICI-118,551
